# Measurements taken from ChEMBL document CHEMBL3856189, “Synthesis of novel diterpenoid analogs with in-vivo antitumor activity” (Eur J Med Chem, 2016).
# Tested on: PC-3
# Experiment: Selectivity index, ratio of IC50 for HAF cells to IC50 for human PC3 cells
# Format: functional
# Conditions: not given
row,Structure (SMILES),Ratio IC50
1,COc1cc2c(cc1C(=O)Nc1ccc(C)cc1)CC[C@H]1C(C)(C)[C@@H](O)CC[C@]21C,3.1

# Tested on: not listed separately
# Experiment: Antiproliferative activity against human MDA-MB-231 cells after 96 hrs by SRB assay
# Format: functional, cell-based
# Conditions: MDA-MB-231, 96 h
row,Structure (SMILES),IC50 [nM]
1,COc1cc2c(cc1C(=O)Nc1ccc(C)cc1)CC[C@H]1C(C)(C)[C@@H](O)CC[C@]21C,1220

# Tested on: T47D
# Experiment: Selectivity index, ratio of IC50 for HAF cells to IC50 for human T47D cells
# Format: functional
# Conditions: not given
row,Structure (SMILES),Ratio IC50
1,COc1cc2c(cc1C(=O)Nc1ccc(C)cc1)CC[C@H]1C(C)(C)[C@@H](O)CC[C@]21C,3.1

# Tested on: not listed separately
# Experiment: Antiproliferative activity against human PC3 cells after 96 hrs by SRB assay
# Format: functional, cell-based
# Conditions: PC-3, 96 h
row,Structure (SMILES),IC50 [nM]
1,COc1cc2c(cc1C(=O)Nc1ccc(C)cc1)CC[C@H]1C(C)(C)[C@@H](O)CC[C@]21C,1480

# Tested on: not listed separately
# Experiment: Antiproliferative activity against human HT-29 cells after 96 hrs by SRB assay
# Format: functional, cell-based
# Conditions: HT-29, 96 h
row,Structure (SMILES),IC50 [nM]
1,COc1cc2c(cc1C(=O)Nc1ccc(C)cc1)CC[C@H]1C(C)(C)[C@@H](O)CC[C@]21C,280

# Tested on: not listed separately
# Experiment: Selectivity index, ratio of IC50 for HAF cells to IC50 for human MDA-MB-231 cells
# Format: functional
# Conditions: not given
row,Structure (SMILES),Ratio IC50
1,COc1cc2c(cc1C(=O)Nc1ccc(C)cc1)CC[C@H]1C(C)(C)[C@@H](O)CC[C@]21C,3.1

# Tested on: not listed separately
# Experiment: Antiproliferative activity against human MCF7 cells after 96 hrs by SRB assay
# Format: functional, cell-based
# Conditions: MCF7, 96 h
row,Structure (SMILES),IC50 [nM]
1,COc1cc2c(cc1C(=O)Nc1ccc(C)cc1)CC[C@H]1C(C)(C)[C@@H](O)CC[C@]21C,220

# Tested on: HL-60
# Experiment: Selectivity index, ratio of IC50 for HAF cells to IC50 for human HL60 cells
# Format: functional
# Conditions: not given
row,Structure (SMILES),Ratio IC50
1,COc1cc2c(cc1C(=O)Nc1ccc(C)cc1)CC[C@H]1C(C)(C)[C@@H](O)CC[C@]21C,3.1

# Tested on: not listed separately
# Experiment: Antiproliferative activity against human DU145 cells after 96 hrs by SRB assay
# Format: functional, cell-based
# Conditions: DU-145, 96 h
row,Structure (SMILES),IC50 [nM]
1,COc1cc2c(cc1C(=O)Nc1ccc(C)cc1)CC[C@H]1C(C)(C)[C@@H](O)CC[C@]21C,2090

# Tested on: not listed separately
# Experiment: Antiproliferative activity against human HL60 cells after 96 hrs by SRB assay
# Format: functional, cell-based
# Conditions: HL-60, 96 h
row,Structure (SMILES),IC50 [nM]
1,COc1cc2c(cc1C(=O)Nc1ccc(C)cc1)CC[C@H]1C(C)(C)[C@@H](O)CC[C@]21C,3520

# Tested on: not listed separately
# Experiment: Antiproliferative activity against HAF cells after 96 hrs by SRB assay
# Format: cell-based
# Conditions: Homo sapiens
row,Structure (SMILES),IC50 [nM]
1,COc1cc2c(cc1C(=O)Nc1ccc(C)cc1)CC[C@H]1C(C)(C)[C@@H](O)CC[C@]21C,3850

# Tested on: DU-145
# Experiment: Selectivity index, ratio of IC50 for HAF cells to IC50 for human DU145 cells
# Format: functional
# Conditions: not given
row,Structure (SMILES),Ratio IC50
1,COc1cc2c(cc1C(=O)Nc1ccc(C)cc1)CC[C@H]1C(C)(C)[C@@H](O)CC[C@]21C,3.1

# Tested on: not listed separately
# Experiment: Selectivity index, ratio of IC50 for HAF cells to IC50 for human HT-29 cells
# Format: functional
# Conditions: not given
row,Structure (SMILES),Ratio IC50
1,COc1cc2c(cc1C(=O)Nc1ccc(C)cc1)CC[C@H]1C(C)(C)[C@@H](O)CC[C@]21C,3.1

# Tested on: HCT-116
# Experiment: Selectivity index, ratio of IC50 for HAF cells to IC50 for human HCT116 cells
# Format: functional
# Conditions: not given
row,Structure (SMILES),Ratio IC50
1,COc1cc2c(cc1C(=O)Nc1ccc(C)cc1)CC[C@H]1C(C)(C)[C@@H](O)CC[C@]21C,3.1

# Tested on: not listed separately
# Experiment: Antiproliferative activity against human HCT116 cells after 96 hrs by SRB assay
# Format: functional, cell-based
# Conditions: HCT-116, 96 h
row,Structure (SMILES),IC50 [nM]
1,COc1cc2c(cc1C(=O)Nc1ccc(C)cc1)CC[C@H]1C(C)(C)[C@@H](O)CC[C@]21C,940

# Tested on: MCF7
# Experiment: Selectivity index, ratio of IC50 for HAF cells to IC50 for human MCF7 cells
# Format: functional
# Conditions: not given
row,Structure (SMILES),Ratio IC50
1,COc1cc2c(cc1C(=O)Nc1ccc(C)cc1)CC[C@H]1C(C)(C)[C@@H](O)CC[C@]21C,3.1

# Tested on: not listed separately
# Experiment: Antiproliferative activity against human T47D cells after 96 hrs by SRB assay
# Format: functional, cell-based
# Conditions: not given
row,Structure (SMILES),IC50 [nM]
1,COc1cc2c(cc1C(=O)Nc1ccc(C)cc1)CC[C@H]1C(C)(C)[C@@H](O)CC[C@]21C,230
